By TGI is commonly meant the concentration giving total growth inhibition. In general, GI50 refers to the concentration at which growth is held to half of that of the control. What is called LC50 is the concentration that kills 50% of the test population. The term Kd denotes the constant that tells how readily two partners part at equilibrium. By IC50 is commonly meant the concentration that gives 50% inhibition.

Data set [1] relates to EKVX. In words: Growth inhibition of human EKVX cells after 48 hrs by sulforhodamine B assay. It counts as functional. On the technique in general: Sulforhodamine B stains cellular protein and so reports cell mass.
Data set [2] concerns NCI-H23. In words: Growth inhibition of human NCI-H23 cells after 48 hrs by sulforhodamine B assay. It counts as functional. Particulars: NCI-H23, 48 h.
Data set [3] concerns HCC 2998. In words: Growth inhibition of human HCC2998 cells after 48 hrs by sulforhodamine B assay. Particulars: HCC 2998, 48 h. It counts as functional.
Data set [4] relates to SK-MEL-5. In words: Growth inhibition of human SK-MEL-5 cells after 48 hrs by sulforhodamine B assay. Format: functional. Particulars: SK-MEL-5, 48 h.
Data set [5] has as its target Mast/stem cell growth factor receptor Kit (Homo sapiens) (UniProt P10721). In words: Binding affinity to human KIT at 10 uM incubated for 1 hr by kinase binding assay relative to untreated control.
For data set [6], the system named is Mast/stem cell growth factor receptor Kit (Homo sapiens), P10721 [L576P]. In words: Binding affinity to human KIT L576P mutant at 10 uM incubated for 1 hr by kinase binding assay relative to untreated control.
Data set [7] deals with Mast/stem cell growth factor receptor Kit (Homo sapiens), P10721 [V559D]. In words: Binding affinity to human KIT V559D mutant at 10 uM incubated for 1 hr by kinase binding assay relative to untreated control.
Data set [8] concerns the target Platelet-derived growth factor receptor alpha (Homo sapiens) (UniProt P16234). Nature of the data set: Binding affinity to human PDGFRA at 10 uM incubated for 1 hr by kinase binding assay relative to untreated control.
The subject of data set [9] is BT-549. In words: Growth inhibition of human BT549 cells after 48 hrs by sulforhodamine B assay. It counts as functional. Particulars: BT-549, 48 h.
Data set [10] deals with MDA-MB-468. In words: Growth inhibition of human MDA-MB-468 cells after 48 hrs by sulforhodamine B assay. It counts as functional. As to conditions: MDA-MB-468, 48 h.
The target of data set [11] is Mast/stem cell growth factor receptor Kit (Homo sapiens) (UniProt P10721). Nature of the data set: Inhibition of human KIT using gamma-33P-ATP as substrate assessed as enzyme functional activity at 1 uM by scintillation counting relative to untreated control. Also on record: scale not given: the % may be the effect or the level left.
For data set [12], the system named is Mast/stem cell growth factor receptor Kit (Homo sapiens), P10721 [V560G]. Nature of the data set: Inhibition of human KIT V560G using gamma-33P-ATP as substrate assessed as enzyme functional activity at 1 uM by scintillation counting relative to untreated control. The arrangement: scale not given: the % may be the effect or the level left.
Data set [13] concerns CCRF-CEM. Nature of the data set: Growth inhibition of human CCRF-CEM cells after 48 hrs by sulforhodamine B assay. It counts as functional.
Data set [14] relates to HOP-92. In words: Growth inhibition of human HOP92 cells after 48 hrs by sulforhodamine B assay. It counts as functional. As to conditions: HOP-92, 48 h.
Data set [15] has as its system SF-295. In words: Growth inhibition of human SF295 cells after 48 hrs by sulforhodamine B assay. Particulars: SF-295, 48 h. Format: functional.
The test system of data set [16] is M14. In words: Growth inhibition of human M14 cells after 48 hrs by sulforhodamine B assay. Particulars: M14, 48 h. It counts as functional.
The test system of data set [17] is SK-MEL-28. Nature of the data set: Growth inhibition of human SK-MEL-28 cells after 48 hrs by sulforhodamine B assay. Format: functional. Particulars: SK-MEL-28, 48 h.
In data set [18] the test system is IGROV-1. In words: Growth inhibition of human IGROV1 cells after 48 hrs by sulforhodamine B assay. It counts as functional. Particulars: IGROV-1, 48 h.
Data set [19] concerns OVCAR-4. In words: Growth inhibition of human OVCAR4 cells after 48 hrs by sulforhodamine B assay. Format: functional. Particulars: OVCAR-4, 48 h.
The test system of data set [20] is PC-3. In words: Growth inhibition of human PC3 cells after 48 hrs by sulforhodamine B assay. It counts as functional. Particulars: PC-3, 48 h.
Data set [21] deals with MCF7. Nature of the data set: Growth inhibition of human MCF7 cells after 48 hrs by sulforhodamine B assay. It counts as functional. Particulars: MCF7, 48 h.
The subject of data set [22] is CCRF-CEM. In words: Cytotoxicity against human CCRF-CEM cells after 48 hrs by sulforhodamine B assay. It counts as cell-based.
Data set [23] has as its system MOLT-4. In words: Growth inhibition of human MOLT4 cells after 48 hrs by sulforhodamine B assay. It counts as functional. Particulars: MOLT-4, 48 h.
Data set [24] deals with T1, Receptor-type tyrosine-protein kinase FLT3 (Homo sapiens, UniProt P36888). In words: Binding affinity to human FLT3 incubated for 1 hr by kinase binding assay.
Data set [25] concerns the target T1, Receptor-type tyrosine-protein kinase FLT3. Nature of the data set: Inhibition of human FLT3 using gamma-33P-ATP as substrate by scintillation counting.

Chain of Mast/stem cell growth factor receptor Kit (Homo sapiens) (P10721 whole entry): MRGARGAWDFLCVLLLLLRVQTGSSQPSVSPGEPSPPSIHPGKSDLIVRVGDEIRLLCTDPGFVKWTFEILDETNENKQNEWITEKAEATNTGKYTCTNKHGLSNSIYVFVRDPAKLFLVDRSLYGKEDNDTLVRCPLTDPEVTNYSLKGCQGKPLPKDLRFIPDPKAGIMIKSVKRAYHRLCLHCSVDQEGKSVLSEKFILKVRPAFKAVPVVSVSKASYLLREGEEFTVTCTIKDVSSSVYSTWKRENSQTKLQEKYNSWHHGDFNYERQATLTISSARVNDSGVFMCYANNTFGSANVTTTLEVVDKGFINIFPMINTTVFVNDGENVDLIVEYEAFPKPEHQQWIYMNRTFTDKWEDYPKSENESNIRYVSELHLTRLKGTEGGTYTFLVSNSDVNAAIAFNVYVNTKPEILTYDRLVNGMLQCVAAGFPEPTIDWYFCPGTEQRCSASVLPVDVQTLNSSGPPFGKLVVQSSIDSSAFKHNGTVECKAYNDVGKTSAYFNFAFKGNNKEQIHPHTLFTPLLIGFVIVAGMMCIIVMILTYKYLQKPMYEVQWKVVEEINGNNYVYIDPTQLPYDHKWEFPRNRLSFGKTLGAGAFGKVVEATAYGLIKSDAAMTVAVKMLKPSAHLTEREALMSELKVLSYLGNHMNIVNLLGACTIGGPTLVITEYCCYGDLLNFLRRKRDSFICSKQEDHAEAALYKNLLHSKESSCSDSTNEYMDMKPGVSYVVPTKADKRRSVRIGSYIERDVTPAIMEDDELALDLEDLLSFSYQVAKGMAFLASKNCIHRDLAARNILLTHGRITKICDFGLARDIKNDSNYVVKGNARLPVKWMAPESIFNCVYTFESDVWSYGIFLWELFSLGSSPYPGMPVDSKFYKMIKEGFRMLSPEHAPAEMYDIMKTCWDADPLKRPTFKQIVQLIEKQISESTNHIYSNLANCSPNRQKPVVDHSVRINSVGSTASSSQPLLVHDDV
Chain of Platelet-derived growth factor receptor alpha (Homo sapiens) (P16234 whole entry): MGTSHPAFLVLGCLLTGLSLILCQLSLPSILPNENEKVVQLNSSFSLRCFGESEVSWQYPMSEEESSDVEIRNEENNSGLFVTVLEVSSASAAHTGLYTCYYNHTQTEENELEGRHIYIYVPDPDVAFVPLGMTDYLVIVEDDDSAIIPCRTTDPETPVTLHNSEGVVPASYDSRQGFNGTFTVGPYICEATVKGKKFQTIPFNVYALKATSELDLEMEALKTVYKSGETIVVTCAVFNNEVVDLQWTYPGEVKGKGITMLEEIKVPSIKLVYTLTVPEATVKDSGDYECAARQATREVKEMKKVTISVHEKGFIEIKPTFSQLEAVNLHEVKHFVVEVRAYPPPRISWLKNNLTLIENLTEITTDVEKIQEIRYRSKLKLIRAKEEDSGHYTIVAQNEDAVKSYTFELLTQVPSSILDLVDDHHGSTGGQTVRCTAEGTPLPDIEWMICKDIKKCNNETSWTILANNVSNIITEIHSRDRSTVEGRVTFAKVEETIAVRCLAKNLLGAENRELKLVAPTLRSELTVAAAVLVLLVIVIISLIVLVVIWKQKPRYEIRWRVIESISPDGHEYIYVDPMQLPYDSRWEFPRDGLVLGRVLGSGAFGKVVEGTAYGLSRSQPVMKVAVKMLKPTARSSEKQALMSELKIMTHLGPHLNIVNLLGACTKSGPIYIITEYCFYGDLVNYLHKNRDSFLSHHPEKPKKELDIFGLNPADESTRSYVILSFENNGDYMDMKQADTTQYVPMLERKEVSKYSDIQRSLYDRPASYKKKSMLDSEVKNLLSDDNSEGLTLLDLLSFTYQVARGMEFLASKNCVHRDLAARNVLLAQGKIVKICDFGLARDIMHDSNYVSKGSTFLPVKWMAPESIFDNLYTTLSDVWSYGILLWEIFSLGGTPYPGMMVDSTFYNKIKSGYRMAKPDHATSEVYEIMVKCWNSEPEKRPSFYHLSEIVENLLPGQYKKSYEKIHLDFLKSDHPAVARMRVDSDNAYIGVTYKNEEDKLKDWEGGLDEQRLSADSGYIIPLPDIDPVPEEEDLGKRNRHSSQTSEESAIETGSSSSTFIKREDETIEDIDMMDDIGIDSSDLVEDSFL
Chain of Mast/stem cell growth factor receptor Kit (Homo sapiens), P10721 [L576P] (P10721 whole entry L576P): as the sequence (P10721 whole entry) above, with L576P counted along it
Chain of Mast/stem cell growth factor receptor Kit (Homo sapiens), P10721 [V560G] (P10721 whole entry V560G): as the sequence (P10721 whole entry) above, with V560G counted along it
Chain of Mast/stem cell growth factor receptor Kit (Homo sapiens), P10721 [V559D] (P10721 whole entry V559D): as the sequence (P10721 whole entry) above, with V559D counted along it
T1 sequence (P36888 whole entry): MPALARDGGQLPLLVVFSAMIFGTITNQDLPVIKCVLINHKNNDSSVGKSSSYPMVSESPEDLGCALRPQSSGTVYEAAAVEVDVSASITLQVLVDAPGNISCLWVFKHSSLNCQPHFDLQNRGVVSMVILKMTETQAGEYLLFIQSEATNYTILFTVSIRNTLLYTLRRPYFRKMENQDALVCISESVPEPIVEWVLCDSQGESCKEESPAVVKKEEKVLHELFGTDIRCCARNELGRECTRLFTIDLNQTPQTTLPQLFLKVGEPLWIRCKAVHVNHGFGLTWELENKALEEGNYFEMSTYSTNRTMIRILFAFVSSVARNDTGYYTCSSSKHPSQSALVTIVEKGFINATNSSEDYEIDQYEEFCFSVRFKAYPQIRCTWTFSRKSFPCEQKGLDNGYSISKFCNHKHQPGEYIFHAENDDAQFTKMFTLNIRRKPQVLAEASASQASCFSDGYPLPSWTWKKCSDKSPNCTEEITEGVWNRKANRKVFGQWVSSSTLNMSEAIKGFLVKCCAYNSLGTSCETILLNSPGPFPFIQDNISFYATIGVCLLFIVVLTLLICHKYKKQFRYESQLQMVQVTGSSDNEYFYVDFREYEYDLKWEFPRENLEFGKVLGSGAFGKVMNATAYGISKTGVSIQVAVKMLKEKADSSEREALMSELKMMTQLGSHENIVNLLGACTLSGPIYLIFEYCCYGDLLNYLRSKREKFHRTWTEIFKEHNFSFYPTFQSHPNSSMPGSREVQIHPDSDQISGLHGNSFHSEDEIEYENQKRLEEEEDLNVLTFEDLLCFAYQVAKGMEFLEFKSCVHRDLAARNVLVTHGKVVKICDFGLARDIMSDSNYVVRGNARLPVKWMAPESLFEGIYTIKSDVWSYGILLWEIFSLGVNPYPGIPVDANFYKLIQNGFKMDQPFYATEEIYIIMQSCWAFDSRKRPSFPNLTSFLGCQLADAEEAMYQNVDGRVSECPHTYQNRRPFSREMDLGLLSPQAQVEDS

As to `O=C(c1cccc(Nc2ncnc3ccccc23)c1)N1CCN(c2ncc(Cc3ccccc3)cn2)CC1`, the TGI in data set [1] worked out at 4.9 µM; in [2], 2.69 µM; in [3], 3.98 µM; in [4], 1.2 µM; in data set [9], 1.74 µM; in [10], 3.47 µM. For the same molecule, the Activity in data set [5] was greater than 50%; in [6], greater than 50%; in data set [7] it was greater than 50%; in [8], greater than 50%; in data set [11] it was 100%; in data set [12] it was 86%.
`CCc1cnc(N2CCN(C(=O)c3ccc(CNc4ncnc5ccccc45)cc3)CC2)nc1`: the GI50 in data set [13] amounted to 10 µM. For the same molecule, the TGI is 60.9 µM in data set [13]; 80.1 µM in data set [14]; 23.1 µM in [15]; 32.7 µM in [16]; greater than 100 µM in [17]; 49.8 µM in data set [18]. The TGI in data set [19] is 58.8 µM; in data set [20] it was greater than 100 µM; in [21] it was 72.8 µM. Also, the Activity is greater than 50% in [5]; greater than 50% in data set [6]; greater than 50% in data set [7]; greater than 50% in data set [8]; 100% in [11]; 99% in [12]. In [22], this molecule had an LC50 greater than 100 µM.
Turning to `c1ccc(Cc2cnc(N3CCN(c4ncnc5ccccc45)CC3)nc2)cc1`, the total growth inhibition concentration (TGI) in data set [13] is 64.4 µM; in data set [23], 40.6 µM; in data set [1], 33.1 µM; in [14] it was 24.2 µM; in data set [2], 30.8 µM; in data set [3] it was 60.9 µM. In addition, the TGI in data set [16] is 26.3 µM; in data set [17], 99.3 µM; in [4], 13.9 µM; in data set [18] it was 63.3 µM; in data set [20], greater than 100 µM; in data set [21] it was 58.2 µM. In addition, the TGI in data set [9] amounted to 18.4 µM. The Kd in [24] was determined as 0.46 µM. This molecule showed an LC50 in data set [22] greater than 100 µM. The molecule also registered a half-inhibitory concentration (IC50) in data set [25] of 6.69 µM.

The values are drawn from ChEMBL document CHEMBL1782045, “Discovery, synthesis, and investigation of the antitumor activity of novel piperazinylpyrimidine derivatives” (Eur J Med Chem, 2011).
